Experimental data from doi:10.1101/2024.08.19.608619, “Discovery of potent SARS-CoV-2 nsp3 macrodomain inhibitors uncovers lack of translation to cellular antiviral response” (bioRxiv, 2024).
In brackets after ≈: the same amount, converted by molar mass. Several values for one entry are separate records, joined by “and”; a condition that tells them apart may be missing. Equal values may be shown once.

Assay: Hepatic microsomal stability, HLM
Type: in vitro ADME, human
Details: In vitro human liver microsomal stability

`CC(C)[C@H](Nc1ncnc2[nH]cc(C(N)=O)c12)c1ccc2c(c1)OCCO2` (racemic) [ASAP-0008399] and `CC(C)(C)[C@H](Nc1ncnc2[nH]c(-c3cnn(CC(N)=O)c3)cc12)c1ccc2c(c1)OCCO2` (racemic) [ASAP-0008581] are within 1.5-fold of each other in clint: 143.0 µL/min/mg for the first, 133.0 µL/min/mg for the second.

Compound `CC(C)[C@H](Nc1ncnc2[nH]c(-c3cnn(C)c3C#N)cc12)c1ccc2c(c1)NC(=O)CO2` (racemic) [ASAP-0008576] has a clint of 100.0 µL/min/mg.

Going from `CC(C)[C@H](Nc1ncnc2[nH]cc(C(N)=O)c12)c1ccc2c(c1)OCCO2` (racemic) [ASAP-0008399] to `CC(C)(C)[C@H](Nc1ncnc2[nH]c(-c3cnn(CC(N)=O)c3)cc12)c1ccc2c(c1)OCCO2` (racemic) [ASAP-0008581], the perc_remaining rises from 9.0% to 11.0%.

`CC(C)[C@H](Nc1ncnc2[nH]c(-c3cnn(C)c3C#N)cc12)c1ccc2c(c1)NC(=O)CO2` (racemic) [ASAP-0008576] gave a perc_remaining of 18.0%.

`CC(C)[C@H](Nc1ncnc2[nH]cc(C(N)=O)c12)c1ccc2c(c1)OCCO2` (racemic) [ASAP-0008399] and `CC(C)(C)[C@H](Nc1ncnc2[nH]c(-c3cnn(CC(N)=O)c3)cc12)c1ccc2c(c1)OCCO2` (racemic) [ASAP-0008581] are within 1.5-fold of each other in t_half: 11.7 min for the first, 12.6 min for the second.

`CC(C)[C@H](Nc1ncnc2[nH]c(-c3cnn(C)c3C#N)cc12)c1ccc2c(c1)NC(=O)CO2` (racemic) [ASAP-0008576] gave a t_half of 16.6 min.

With `Cn1ncc(-c2cc3c(N[C@H](c4ccc5c(n4)OCCO5)C(C)(C)C)ncnc3[nH]2)c1C#N` (racemic) [ASAP-0008645] the clint was 70.0 µL/min/mg and 81.0 µL/min/mg.

With `Cn1ncc(-c2cc3c(N[C@H](c4ccc5c(n4)OCCO5)C(C)(C)C)ncnc3[nH]2)c1C#N` (racemic) [ASAP-0008645] the perc_remaining was 30.0% and 27.0%.

In the case of `Cn1ncc(-c2cc3c(N[C@H](c4ccc5c(n4)OCCO5)C(C)(C)C)ncnc3[nH]2)c1C#N` (racemic) [ASAP-0008645], the t_half is reported as 23.9 min and 20.6 min.

Same assay, conditions: In vitro human liver microsomal stability; no cofactor

First: CC(C)[C@H](Nc1ncnc2[nH]cc(C(N)=O)c12)c1ccc2c(c1)OCCO2 (racemic) [ASAP-0008399]
Second: CC(C)(C)[C@H](Nc1ncnc2[nH]c(-c3cnn(CC(N)=O)c3)cc12)c1ccc2c(c1)OCCO2 (racemic) [ASAP-0008581]
The perc_remaining_no_cofactor of the first is higher: 110.0% for the first, 87.0% for the second.

Compound `CC(C)[C@H](Nc1ncnc2[nH]c(-c3cnn(C)c3C#N)cc12)c1ccc2c(c1)NC(=O)CO2` (racemic) [ASAP-0008576] has a perc_remaining_no_cofactor of 93.0%.

For `Cn1ncc(-c2cc3c(N[C@H](c4ccc5c(n4)OCCO5)C(C)(C)C)ncnc3[nH]2)c1C#N` (racemic) [ASAP-0008645], the perc_remaining_no_cofactor was 91.0% and 108.0%.

Assay: LogD
Details: pH 7.4

In the case of `CC(C)C(Nc1ncnc2[nH]ccc12)c1ccc2c(n1)OCCO2` (stereo not drawn) [ASAP-0008270], the logd is reported as 2.8.

Same assay, conditions: pH 7.4; In vitro LogD

Going from `CC(C)[C@H](Nc1ncnc2[nH]cc(C(N)=O)c12)c1ccc2c(c1)OCCO2` (racemic) [ASAP-0008399] to `CC(C)[C@@H](Nc1ncnc2[nH]ccc12)c1ccc2c(c1)OCCO2` [ASAP-0008279], the logd falls from 3.2 to 3.0.

Compared with `CC(C)[C@H](Nc1ncnc2[nH]c(-c3cnn(C)c3C#N)cc12)c1ccc2c(c1)NC(=O)CO2` (racemic) [ASAP-0008576], `CC(C)(C)[C@H](Nc1ncnc2[nH]c(-c3cnn(CC(N)=O)c3)cc12)c1ccc2c(c1)OCCO2` (racemic) [ASAP-0008581] is lower in logd: 4.1 for the first, 3.2 for the second.

`O=C(O)C[C@H](NC(=O)c1ncnc2[nH]ccc12)c1ccc(Br)cc1` [ASAP-0000136] showed a logd of 0.22.

Assay: In vitro kinetic solubility
Details: In vitro kinetic solubility, ph 7.4

First: CC(C)[C@H](Nc1ncnc2[nH]cc(C(N)=O)c12)c1ccc2c(c1)OCCO2 (racemic) [ASAP-0008399]
Second: CC(C)(C)[C@H](Nc1ncnc2[nH]c(-c3cnn(CC(N)=O)c3)cc12)c1ccc2c(c1)OCCO2 (racemic) [ASAP-0008581]
The solubility_mean of the first is 1.9-fold higher: 375 µM (≈ 138 µg/mL) for the first, 195 µM (≈ 90 µg/mL) for the second.

`CC(C)[C@H](Nc1ncnc2[nH]c(-c3cnn(C)c3C#N)cc12)c1ccc2c(c1)NC(=O)CO2` (racemic) [ASAP-0008576] gave a solubility_mean of 69 µM (≈ 30.5 µg/mL).

In the case of `Cn1ncc(-c2cc3c(N[C@H](c4ccc5c(n4)OCCO5)C(C)(C)C)ncnc3[nH]2)c1C#N` (racemic) [ASAP-0008645], the solubility_mean is reported as 25 µM and 24 µM.

Assay: Permeability Papp (AB) MDR1/MDCKII
Details: In vitro MDR1-MDCKII permeability, A to B, mean

Compared with `CC(C)[C@H](Nc1ncnc2[nH]cc(C(N)=O)c12)c1ccc2c(c1)OCCO2` (racemic) [ASAP-0008399], `CC(C)(C)[C@H](Nc1ncnc2[nH]c(-c3cnn(CC(N)=O)c3)cc12)c1ccc2c(c1)OCCO2` (racemic) [ASAP-0008581] is 6.7-fold lower in papp_a_to_b_mean: 11.1 ×10⁻⁶ cm/s for the first, 1.66 ×10⁻⁶ cm/s for the second.

In the case of `CC(C)[C@H](Nc1ncnc2[nH]c(-c3cnn(C)c3C#N)cc12)c1ccc2c(c1)NC(=O)CO2` (racemic) [ASAP-0008576], the papp_a_to_b_mean is reported as 3.07 ×10⁻⁶ cm/s.

With `Cn1ncc(-c2cc3c(N[C@H](c4ccc5c(n4)OCCO5)C(C)(C)C)ncnc3[nH]2)c1C#N` (racemic) [ASAP-0008645] the papp_a_to_b_mean was 9.87 ×10⁻⁶ cm/s and 13.5 ×10⁻⁶ cm/s.

Same assay, conditions: In vitro MDR1-MDCKII permeability, recovery A to B, mean

First: CC(C)[C@H](Nc1ncnc2[nH]cc(C(N)=O)c12)c1ccc2c(c1)OCCO2 (racemic) [ASAP-0008399]
Second: CC(C)(C)[C@H](Nc1ncnc2[nH]c(-c3cnn(CC(N)=O)c3)cc12)c1ccc2c(c1)OCCO2 (racemic) [ASAP-0008581]
The perc_recovery_a_to_b_mean of the first is lower: 90.0% for the first, 94.7% for the second.

`CC(C)[C@H](Nc1ncnc2[nH]c(-c3cnn(C)c3C#N)cc12)c1ccc2c(c1)NC(=O)CO2` (racemic) [ASAP-0008576] gave a perc_recovery_a_to_b_mean of 80.1%.

In the case of `Cn1ncc(-c2cc3c(N[C@H](c4ccc5c(n4)OCCO5)C(C)(C)C)ncnc3[nH]2)c1C#N` (racemic) [ASAP-0008645], the perc_recovery_a_to_b_mean is reported as 73.4% and 58.4%.

Assay: Hepatic microsomal stability, MLM
Type: in vitro ADME
Details: In vitro mouse liver microsomal stability

Compared with `CC(C)[C@H](Nc1ncnc2[nH]cc(C(N)=O)c12)c1ccc2c(c1)OCCO2` (racemic) [ASAP-0008399], `CC(C)(C)[C@H](Nc1ncnc2[nH]c(-c3cnn(CC(N)=O)c3)cc12)c1ccc2c(c1)OCCO2` (racemic) [ASAP-0008581] is 3-fold lower in clint: 142.0 µL/min/mg for the first, 47.0 µL/min/mg for the second.

Compound `CC(C)[C@H](Nc1ncnc2[nH]c(-c3cnn(C)c3C#N)cc12)c1ccc2c(c1)NC(=O)CO2` (racemic) [ASAP-0008576] has a clint of 177.0 µL/min/mg.

First: CC(C)[C@H](Nc1ncnc2[nH]cc(C(N)=O)c12)c1ccc2c(c1)OCCO2 (racemic) [ASAP-0008399]
Second: CC(C)(C)[C@H](Nc1ncnc2[nH]c(-c3cnn(CC(N)=O)c3)cc12)c1ccc2c(c1)OCCO2 (racemic) [ASAP-0008581]
The perc_remaining of the first is lower: 9.0% for the first, 46.0% for the second.

`CC(C)[C@H](Nc1ncnc2[nH]c(-c3cnn(C)c3C#N)cc12)c1ccc2c(c1)NC(=O)CO2` (racemic) [ASAP-0008576] gave a perc_remaining of 6.0%.

Compared with `CC(C)[C@H](Nc1ncnc2[nH]cc(C(N)=O)c12)c1ccc2c(c1)OCCO2` (racemic) [ASAP-0008399], `CC(C)(C)[C@H](Nc1ncnc2[nH]c(-c3cnn(CC(N)=O)c3)cc12)c1ccc2c(c1)OCCO2` (racemic) [ASAP-0008581] is 3-fold higher in t_half: 11.7 min for the first, 35.2 min for the second.

`CC(C)[C@H](Nc1ncnc2[nH]c(-c3cnn(C)c3C#N)cc12)c1ccc2c(c1)NC(=O)CO2` (racemic) [ASAP-0008576] gave a t_half of 9.4 min.

For `Cn1ncc(-c2cc3c(N[C@H](c4ccc5c(n4)OCCO5)C(C)(C)C)ncnc3[nH]2)c1C#N` (racemic) [ASAP-0008645], the clint was 188.0 µL/min/mg and 209.0 µL/min/mg.

With `Cn1ncc(-c2cc3c(N[C@H](c4ccc5c(n4)OCCO5)C(C)(C)C)ncnc3[nH]2)c1C#N` (racemic) [ASAP-0008645] the perc_remaining was 5.0% and 4.0%.

In the case of `Cn1ncc(-c2cc3c(N[C@H](c4ccc5c(n4)OCCO5)C(C)(C)C)ncnc3[nH]2)c1C#N` (racemic) [ASAP-0008645], the t_half is reported as 8.9 min and 8.0 min.

Same assay, conditions: In vitro mouse liver microsomal stability, no cofactor

Compared with `CC(C)[C@H](Nc1ncnc2[nH]cc(C(N)=O)c12)c1ccc2c(c1)OCCO2` (racemic) [ASAP-0008399], `CC(C)(C)[C@H](Nc1ncnc2[nH]c(-c3cnn(CC(N)=O)c3)cc12)c1ccc2c(c1)OCCO2` (racemic) [ASAP-0008581] is higher in perc_remaining_no_cofactor: 98.0% for the first, 107.0% for the second.

Compared with `CC(C)[C@H](Nc1ncnc2[nH]c(-c3cnn(C)c3C#N)cc12)c1ccc2c(c1)NC(=O)CO2` (racemic) [ASAP-0008576], `Cn1ncc(-c2cc3c(N[C@H](c4ccc5c(n4)OCCO5)C(C)(C)C)ncnc3[nH]2)c1C#N` (racemic) [ASAP-0008645] is higher in perc_remaining_no_cofactor: 97.0% for the first, 106.0% for the second.

Same assay, conditions: In vitro mouse liver microsomal stability; no cofactor

`Cn1ncc(-c2cc3c(N[C@H](c4ccc5c(n4)OCCO5)C(C)(C)C)ncnc3[nH]2)c1C#N` (racemic) [ASAP-0008645] gave a perc_remaining_no_cofactor of 101.0%.
